Test results taken from US6613875B1, “Cyclic peptide tube” (The Scripps Research Institute, priority 1993, dated 2003).
Square brackets hold non-standard residues; d marks the D form.

Columns and labels:
[1] = Incorporation of peptide subunit into lipid bilayers of large unilamellar vesicles (absorption and fluorescence spectroscopy); assay type: physicochemical; settings: aqueous liposomal suspensions
Excerpt: Incorporation of the peptide subunit into lipid bilayers using large unilamellar vesicles has been established by absorption and fluorescence spectroscopy. Formation of the hydrogen-bonded transmembrane channel structure in phosphatidylcholin liposomes has been supported by FT-IR spectroscopy (FIG. 24). The observed amide-I band at 1624 cm^−1 is not only similar to the carbonyl stretching frequencies found in other nanotube structures disclosed herein, but is also consistent with the infrared spectrum of gramicidin A in similar lipid bilayers. (E. Nabedryk et al in Biophys. J. (1982), vol. 38, pages 243-249. Furthermore, the observed N-H stretching frequency at 3272 cm^−1 strongly supports the formation of a tight network of hydrogen bonds with an average intersubunit distance of 4.7 Å.
The second control peptide cyclo[-(^MeN-D-Ala-Phe)4-] which has the desirable hydrophobic surface characteristics but lacks the propensity for participating in extended hydrogen bonding network, was also designed and tested for ion transport activity. The peptide design incorporates a novel N-methylation strategy on one face of the ring structure which predisposes the subunit toward a dimeric cylindrical structure (Ghadiri, M. R., Kobayashi, K., Granja, J. R., Chadha, R., and McRee, D. E. manuscript in preparation). Such a dimeric cylindrical ensemble is approximately 10 Å thick and can not span the lipid bilayer.
The ten-residue peptide subunit employed in the present study, cyclo[-Gln-(D-Leu-Trp)4-D-Leu-], is made up of largely tryptophan and leucine residues to favor its partitioning into and self-assembly in lipid bilayers. It was synthesized on solid support^5 and characterized by ^1H NMR spectroscopy and mass spectrometry. […] This has been supported by absorption and fluorescence spectrophotometry and gel permeation studies. Formation of a hydrogen bonded transmembrane channel structure in phosphatidylcholin liposomes has been established by FT-IR spectroscopy^6. […]

[2] = Channel-mediated glucose efflux from glucose entrapped unilamellar vesicles, enzyme coupled NADPH assay; assay type: biochemical; settings: for apparent rate constant of glucose transport: 27° C.
Excerpt: FIG. 28 illustrates a schematic illustration of channel-mediated glucose transport and the enzyme coupled assay used to monitor the transport activity with respect to the channel structure indicated in FIGS. 27A-B. Formation of a transmembrane pore structure(s) initiates glucose efflux from the liposome which can be directly monitored by measuring the rate of NADPH production. The enzymes and cofactors employed are hydrophilic and thus can not pass through the lipid membrane and are too large to penetrate the channel structure. Therefore, only the released glucose can undergo the enzymatic reaction.
FIG. 29 illustrates the ensuing glucose efflux on the addition of various amounts of the channel forming peptide of FIGS. 27A-B, viz., open circles represent 15.0×10^−6 M; closed circles represent 11.0×10^−6 M; open triangles represent 7.5×10^−6 M; closed triangles represent 5.6×10^−6 M; and open diamonds represent 3.8×10^−6 M. Efflux is expressed in terms of the amount of glucose released as a function of time (sampled at 90 sec intervals). The large unilamellar vesicles used in this study contained 200 mM D-glucose. All curves are background corrected to remove any contribution from the nonspecific glucose leakage from the liposomes.
Glucose transport activity was studied in isotonic solutions using glucose entrapped unilamellar lipid vesicles. Unilamellar vesicles, ˜150 nm in diameter, were prepared by the reverse-phase evaporation method using 1,2-dipalmitoyl-Sn-glycero-3-phosphatidylcholine (DPPC) 1-palmitoyl-2-oleoyl-Sn-glycero-3-phosphatidylcholine (POPC) 1-palmitoyl-2-oleoyl-Sn-glycero-3-phosphatidylserine (POPS), and cholesterol in the ratio 1:1:0.1:1 in a solution containing 50, 100, 150, or 200 mM D-glucose, 100 mM NaCl, and 50 mM Tris buffer pH 7.5, according to the method of F. Szoka et al. in Proc. Natl. Acad. Sci. USA (1978), vol. 75, pages 4194-4198. Liposomes were gel-filtered using Sephadex G-25 in an isotonic buffer containing 50, 100, 150, or 200 mM sucrose, 100 mM NaCl, and 50 mM Tris buffer pH 7.5. The liposome preparation was stored at 4° C. and used within 24 hours of the synthesis. The transport phenomenon was monitored spectrophotometrically at 340 nm for the production of NADPH using an enzyme coupled assay (FIG. 28), according to the method of S. C. Kinsky in Methods in Enzymology; Fleischer, S., Packer, L., Eds; Academic Press: London, 1974; vol. 32, pp 501-513. All experiments were performed on a Spectronic-3000 photodiode-array spectrophotometer using 3 ml quartz cuvettes placed in the thermojacketed multiple cell holder and held at 27° C. In a typical experiment the following solutions were sequentially placed in the cuvettes: 750 ml of buffer (300 mM NaCl, 50 mM Tris pH 7.5, 3.5 mM MgCl2, and 0.15 mM CaCl2), 500 ml of the enzyme solution (8 units.ml^−1 of hexokinase, 16 units.ml^−1 of glucose-6-phosphate dehydrogenase, 2.5 mM ATP, 1.3 mM NADP all dissolved in 200 mM NaCl, 50 mM Tris pH 7.5, 3.5 mM MgCl2, and 0.15 mM CaCl2), and 75 ml of the stock liposome solution^8 (2.6×10^−3 M in phospholipids). Total glucose content in each cuvette was determined by Triton X-100 treatment. Transport was initiated by the addition of an appropriate amount (5, 7.5, 10, 15, or 20 ml) of the peptide solution (1 mM in DMF) to the reference and the sample cuvettes (hexokinase was omitted from the reference sample). […] The production of NADPH was monitored at 340 nm for 1.5 h at 90 second time intervals. […]

In the case of “cyclo[-(Trp-D-Leu)3-Gln-D-Leu-] (cyclo(W[dL]W[dL]W[dL]Q[dL]); SMILES CC(C)C[C@H]1NC(=O)[C@H](CCC(N)=O)NC(=O)[C@@H](CC(C)C)NC(=O)[C@H](Cc2c[nH]c3ccccc23)NC(=O)[C@@H](CC(C)C)NC(=O)[C@H](Cc2c[nH]c3ccccc23)NC(=O)[C@@H](CC(C)C)NC(=O)[C@H](Cc2c[nH]c3ccccc23)NC1=O) [eight residue ion channel forming cyclic peptide, approximately 7.5 Å pore]”, the “partitioning / incorporation into lipid bilayers” value [1] is reported as “rapid partitioning” and the “display any glucose transport activity under similar assay conditions” value ([2]; sentence reads 'neither ... nor ... display any glucose transport activity' = none) is reported as “nor”.
For “cyclo[-Gln-(D-Leu-Trp)4-D-Leu-] (cyclo(Q[dL]W[dL]W[dL]W[dL]W[dL]); SMILES CC(C)C[C@H]1NC(=O)[C@H](CCC(N)=O)NC(=O)[C@@H](CC(C)C)NC(=O)[C@H](Cc2c[nH]c3ccccc23)NC(=O)[C@@H](CC(C)C)NC(=O)[C@H](Cc2c[nH]c3ccccc23)NC(=O)[C@@H](CC(C)C)NC(=O)[C@H](Cc2c[nH]c3ccccc23)NC(=O)[C@@H](CC(C)C)NC(=O)[C@H](Cc2c[nH]c3ccccc23)NC1=O) [10-residue cyclic peptide forming 10 Å pores that transport glucose]”, the “partitioning / incorporation into lipid bilayers” value [1] was “rapid incorporation”, the “apparent rate constant of glucose transport” value (“apparent rate constant” for short) ([2]; liposomes with initial glucose concentration 50 mM) was 0.18±0.02 mol(glucose)/mol(peptide)/min^−1 and the “apparent rate constant” value ([2]; liposomes with initial glucose concentration 100 mM) was 0.48±0.05 mol(glucose)/mol(peptide)/min^−1. The “apparent rate constant” value ([2]; liposomes with initial glucose concentration 150 mM) was 0.74±0.1 mol(glucose)/mol(peptide)/min^−1 and the “apparent rate constant” value ([2]; liposomes with initial glucose concentration 200 mM) was 1.2±0.09 mol(glucose)/mol(peptide)/min^−1.
